According to ChEMBL document CHEMBL6071160, “Identification of a novel 10-hydroxyevodiamine prodrug as a potent topoisomerase inhibitor with improved aqueous solubility for treatment of hepatocellular carcinoma” (Eur J Med Chem, 2024):
Calls of active or inactive are those of the source. No cut-off for these calls is given here.

Key:
Huh-7 [1] = experiment: Induction of apoptosis in human Huh-7 cells assessed as necrotic cells at 40 nM measured after 24 hrs by Annexin-V-FITC/PI analysis (reference value: 0.27%); assay type: functional
SK-HEP1 [2] = experiment: Induction of cell cycle arrest in human SK-HEP1 cells assessed as accumulation of cells at S phase 80 nM measured after 24 hrs by flow cytometric assay (reference value: 30.04%); assay type: functional
SK-HEP1 [3] = experiment: Induction of cell cycle arrest in human SK-HEP1 cells assessed as accumulation of cells at G2 phase 40 nM measured after 24 hrs by flow cytometric assay (reference value: 22.41%); assay type: functional
Huh-7 [4] = experiment: Induction of apoptosis in human Huh-7 cells assessed as ROS generation by measuring DCFH2-DA stained cells at 40 nM measured after 24 hrs […] (reference value: 0.45%); assay type: functional
[5] = target: DNA topoisomerase II (Homo sapiens) (UniProt P11388+Q02880); experiment: Inhibition of DNA topoisomerase 2 (unknown origin) assessed as relaxation of supercoiled plasmid pBR322 DNA at 25 to 100 uM incubated for 15 mins measured after 30 mins addition of ethidium bromide by agarose gel electrophoresis; assay type: protein assay; conditions: dose 25-100 µM
[6] = Chemical stability of compound at pH 7.4 assessed as residual rate measured after 2 days; assay type: physicochemical; conditions: buffer, time 2 day, read-out: Stability
HepG2 = experiment: Antiproliferative activity against human HepG2 cells assessed as inhibition of cell proliferation incubated for 72 hrs by MTT assay; assay type: functional, cell-based; conditions: HepG2, 72 h
Huh-7 [7] = experiment: Induction of apoptosis in human Huh-7 cells assessed as late apoptotic cells at 20 nM measured after 24 hrs by Annexin-V-FITC/PI analysis (reference value: 1.23%); assay type: functional
Huh-7 [8] = experiment: Induction of apoptosis in human Huh-7 cells assessed as viable cells at 20 nM measured after 24 hrs by Annexin-V-FITC/PI analysis (reference value: 97.46%); assay type: functional; conditions: read-out: Activity
Huh-7 [9] = experiment: Induction of cell cycle arrest in human Huh-7 cells assessed as accumulation of cells at G1 phase 20 nM measured after 24 hrs by flow cytometric assay (reference value: 63.01%); assay type: functional
Huh-7 [10] = experiment: Induction of cell cycle arrest in human Huh-7 cells assessed as accumulation of cells at S phase 20 nM measured after 24 hrs by flow cytometric assay (reference value: 23.33%); assay type: functional
SK-HEP1 [11] = experiment: Induction of apoptosis in human SK-HEP1 cells assessed as late apoptotic cells at 20 nM measured after 24 hrs by Annexin-V-FITC/PI analysis (reference value: 0.64%); assay type: functional
Huh-7 [12] = experiment: Induction of apoptosis in human Huh-7 cells assessed as loss of mitochondrial membrane potential by measuring JC-1 stained cells at 20 nM measured after 24 hrs by JC-1 staining based flow cytometry (reference value: 2.27%); assay type: functional
SK-HEP1 [13] = experiment: Induction of cell cycle arrest in human SK-HEP1 cells assessed as accumulation of cells at G2 phase 20 nM measured after 24 hrs by flow cytometric assay (reference value: 22.41%); assay type: functional
[14] = Drug resistance index, ratio of IC50 for antiproliferative activity against human SMMC-7721 cells to antiproliferative activity against human Doxorubicin-resistant SMMC-7721 cells; assay type: functional
SK-HEP1 [15] = experiment: Induction of cell cycle arrest in human SK-HEP1 cells assessed as accumulation of cells at G1 phase 80 nM measured after 24 hrs by flow cytometric assay (reference value: 47.55%); assay type: functional
SK-HEP1 [16] = experiment: Induction of apoptosis in human SK-HEP1 cells assessed as ROS generation by measuring DCFH2-DA stained cells at 40 nM measured after 24 hrs […] (reference value: 0.14%); assay type: functional
Huh-7 [17] = experiment: Inhibition of cell invasion in human Huh-7 cells assessed as decrease in number of cells migration into lower compartment at 40 nM measured after 24 hrs by transwell assay; assay type: functional, cell-based
Huh-7 [18] = experiment: Induction of cell cycle arrest in human Huh-7 cells assessed as accumulation of cells at G2 phase 20 nM measured after 24 hrs by flow cytometric assay (reference value: 13.66%); assay type: functional
SK-HEP1 [19] = experiment: Induction of apoptosis in human SK-HEP1 cells assessed as ROS generation by measuring DCFH2-DA stained cells at 80 nM measured after 24 hrs […] (reference value: 0.14%); assay type: functional
SK-HEP1 [20] = experiment: Inhibition of cell invasion in human SK-HEP1 cells assessed as decrease in number of cells migration into lower compartment at 10 nM measured after 24 hrs by transwell assay; assay type: functional, cell-based
[21] = Chemical stability of compound at pH 5.5 assessed as residual rate measured after 2 days; assay type: physicochemical; conditions: buffer, time 2 day, read-out: Stability
SK-HEP1 [22] = experiment: Inhibition of cell migration in human SK-HEP1 cells at 10 nM measured for 24 hrs by scratch wound healing assay; assay type: functional, cell-based
SK-HEP1 [23] = experiment: Induction of apoptosis in human SK-HEP1 cells assessed as viable cells at 80 nM measured after 24 hrs by Annexin-V-FITC/PI analysis (reference value: 97.20%); assay type: functional; conditions: read-out: Activity
[24] = AUC (0 to t) in Sprague-Dawley rat at 10 mg/kg, ip measured upto 24 hrs by LC-MS/MS analysis; assay type: ADME, organism-based; conditions: in vivo
[25] = Toxicity in BALB/c nude mouse subcutaneously injected with human Huh-7 cells assessed as changes in spleen tissue at 10 mg/kg, ip administered once daily measured after 14 days by H and E staining based assay; assay type: organism-based; conditions: in vivo, 336 h, time 14 day
Huh-7 [26] = experiment: Induction of apoptosis in human Huh-7 cells assessed as early apoptotic cells at 20 nM measured after 24 hrs by Annexin-V-FITC/PI analysis (reference value: 1.04%); assay type: functional
SK-HEP1 [27] = experiment: Inhibition of cell migration in human SK-HEP1 cells at 20 nM measured for 24 hrs by scratch wound healing assay; assay type: functional, cell-based
Huh-7 [28] = experiment: Antiproliferative activity against human Huh-7 cells assessed as inhibition of colony formation at 10 to 40 nM measured 1 to 2 weeks by human tumor clonogenic assays (HTCA); assay type: functional, cell-based; conditions: dose 10-40 nM, time 1-2 weeks
[29] = Toxicity in BALB/c nude mouse subcutaneously injected with human Huh-7 cells assessed as change in body weight at 10 mg/kg, ip administered once daily measured after 14 days; assay type: organism-based; conditions: in vivo, 336 h, time 14 day
Huh-7 [30] = experiment: Induction of apoptosis in human Huh-7 cells assessed as viable cells at 40 nM measured after 24 hrs by Annexin-V-FITC/PI analysis (reference value: 97.46%); assay type: functional; conditions: read-out: Activity
SMMC-7721 = experiment: Antiproliferative activity against human SMMC-7721 cells assessed as inhibition of cell proliferation incubated for 72 hrs by MTT assay; assay type: functional, cell-based; conditions: SMMC-7721, 72 h
Huh-7 [31] = experiment: In vivo antitumor activity against human Huh-7 cells subcutaneously injected into BALB/C nude mouse assessed as tumor growth inhibition at 40 mg/kg, ip administered once other day measured after 14 days; assay type: functional; conditions: Huh-7, 336 h, time 14 day, read-out: TGI
SK-HEP1 [32] = experiment: Induction of cell cycle arrest in human SK-HEP1 cells assessed as accumulation of cells at S phase 20 nM measured after 24 hrs by flow cytometric assay (reference value: 30.04%); assay type: functional

C[N+](C)(C)CCC(=O)Oc1ccc2[nH]c3c(c2c1)CCN1C(=O)c2cc(F)cc(F)c2N(c2cccc(F)c2)C31.[I-] (centres undefined)
Activity (Huh-7 [1]): 0.04%
Activity (SK-HEP1 [2]): 18.41%
Activity (SK-HEP1 [3]): 24.99%
Activity (Huh-7 [4]): 1.09%
inhibition [5]: Active
remaining at 48 h [6]: 43.9%
IC50 (HepG2): 90 nM
Activity (Huh-7 [7]): 2.03%
viability at 0.02 µM (Huh-7 [8]): 96.6%
Activity (Huh-7 [9]): 66.72%
Activity (Huh-7 [10]): 27.35%
Activity (SK-HEP1 [11]): 0.71%
Activity (Huh-7 [12]): 2.23%
Activity (SK-HEP1 [13]): 23.61%
Ratio [14]: 1.2
Activity (SK-HEP1 [15]): 13.31%
Activity (SK-HEP1 [16]): 13.95%
inhibition (Huh-7 [17]): Active
Activity (Huh-7 [18]): 5.93%
Activity (SK-HEP1 [19]): 56.75%
inhibition (SK-HEP1 [20]): Active
remaining at 48 h [21]: 55.8%
inhibition (SK-HEP1 [22]): Active
viability at 0.08 µM (SK-HEP1 [23]): 64.7%
AUC(0-t) at 24 h [24]: 1540 ng·h/mL
Activity [25]: Non-Toxic
Activity (Huh-7 [26]): 1.31%
inhibition (SK-HEP1 [27]): Active
Activity (Huh-7 [28]): Active
Activity [29]: Non-Toxic
viability at 0.04 µM (Huh-7 [30]): 94.2%
IC50 (SMMC-7721): 90 nM
inhibition in vivo at 40 mg/kg (Huh-7 [31]): 51.1%
Activity (SK-HEP1 [32]): 28.78%
